Measurements reported in US20220175699A1, “CO[…]-CLEAVABLE A[…] AND […]” (Ensysce Biosciences, Inc., priority 2019, published 2022).
Read-outs that look alike come from different tables or passages of the source.

Key:
[1] = rats, fasted, IV 10 mg/kg Compound AM-9; 2, 15 and 60 min postdose
Procedure: The formulation was a clear solution. Animals were fasted overnight through 4 hours postdose prior to dosing, 4 animals per groups. Individual doses of AM-9 was calculated based on body weights taken on the day of dosing.
Blood was collected from a jugular vein into tubes containing K2EDTA anticoagulant. Blood (approximately 1 mL) was collected from each animal predose and at 2, 15 and 60 min postdose and processed for plasma. CSF was obtained at these same time periods. Plasma and CSF samples were evaluated for AM-9 by LC-MS-MS Mass spectrometer (API 5000 AB Sciex Instruments).

[2] = rats, fasted, IV 5 mg/kg Compound AM-9
Procedure: Animals were fasted overnight through 4 hours postdose prior to dosing, 4 animals per groups. Individual doses of AM-9 was calculated based on body weights taken on the day of dosing.
(§1) Blood was collected from a jugular vein into tubes containing K2EDTA anticoagulant. Blood (approximately 1 mL) was collected from each animal predose and at 0.167, 0.333, 0.5, 0.667, 0.833 1, 2, 4, and 7 hours postdose and processed for plasma. Plasma samples were evaluated for either AM-9 or amphetamine by LC-MS-MS Mass spectrometer (API 5000 AB Sciex Instruments).

[3] = rats, fasted, PO 27.7 mg/kg Compound AM-9
Procedure: Animals were fasted overnight through 4 hours postdose prior to dosing, 4 animals per groups. Individual doses of AM-9 was calculated based on body weights taken on the day of dosing. […] Prior to withdrawing the gavage tube, the tube was flushed with approximately 2 mL of water.
as §1, with “4, 5,” for “4,”, “and 8” for “and 7”, “for” for “for either”, “AM-9 and” for “AM-9 or”

[4] = male Beagle dogs, fasted, PO Compound AM-9
Procedure: Male Beagle dogs were fasted overnight through 4 hours postdose. Individual doses of AM-9 were calculated based on body weights taken on the day of each dosing. The liquid formulations were administered via oral gavage, 4 per group. Prior to withdrawing the gavage tube, the tube was flushed with approximately 10 mL of water.
Blood (approximately 2 mL) was collected from each animal predose and at 0.167, 0.333, 0.5, 0.75, 1, 2, 3, 4, 6, and 8 hours postdose and processed for plasma. Plasma samples were evaluated for AM-9 and amphetamine by LC-MS-MS Mass spectrometer (API 5000 AB Sciex Instruments).

[5] = male Beagle dogs, fasted, PO 0.4 mg/kg
Procedure: Male Beagle dogs were fasted overnight through 4 hours postdose. Individual doses of all amphetamine and AM-9 (0.4 mg/kg) were calculated based on body weights taken on the day of each dosing. The liquid formulations were administered via oral gavage, 4 per group. Prior to withdrawing the gavage tube, the tube was flushed with approximately 10 mL of water.
(§2) Blood (approximately 2 mL) was collected from each animal predose and at 0.167, 0.333, 0.5, 0.75, 1, 2, 3, 4, 6, and 8 hours postdose and processed for plasma. Plasma samples were evaluated for amphetamine by LC-MS-MS Mass spectrometer (API 5000 AB Sciex Instruments).

[6] = Plasma amphetamine following PO administration of d-amphetamine, Compound AM-9 and Vyvanse to dogs (Example 7); conditions: male Beagle dogs, fasted
Procedure: Male Beagle dogs were fasted overnight through 4 hours postdose. Individual doses of amphetamine, AM-9 and Vyvanse were calculated based on body weights taken on the day of each dosing. The liquid formulations were administered via oral gavage, 4 per group. Prior to withdrawing the gavage tube, the tube was flushed with approximately 10 mL of water.
as §2

[7] = Plasma amphetamine following PO Compound AM-9 0.6 mg/kg to rats without and with trypsin inhibitor nafamostat (Example 8); type: in vivo
Procedure: This example provides a comparison of the immediate release of amphetamine into plasma when Compound AM-9 at a dosage of 0.6 mg/kg is administered PO to fasted rats alone, or with 0.1 and 0.25 mg/kg trypsin inhibitor Nafamostat.
(§3) The formulation was a clear solution. Animals were either fasted overnight through 4 hours postdose or fed ad lib prior to dosing, 4 animals per groups. […] The liquid formulation was administered via oral gavage at […].
FIG. 8A depicts the mean plasma concentration of amphetamine over 8 hours after administration of Compound AM-9 at doses of 0.6 mg/kg alone and in combination with 0.1 mg/kg of Nafamostat and 0.25 mg/kg of Nafamostat. FIG. 8B depicts the mean plasma concentration of amphetamine over the first 2 hours after administration of Compound AM-9 at doses of 0.6 mg/kg alone and in combination with 0.1 mg/kg of Nafamostat and 0.25 mg/kg of Nafamostat.

[8] = Plasma amphetamine following PO Compound AM-9 6 mg/kg to rats without and with trypsin inhibitor nafamostat (Example 9); type: in vivo; conditions: fasted rats, PO Compound AM-9 6 mg/kg with 1, 2.5, 5 and 10 mg/kg Nafamostat vs alone
Procedure: This example provides a comparison of the immediate release of amphetamine into plasma when Compound AM-9 at a dosage of 6 mg/kg is administered PO to fasted rats alone, or with 1, 2.5, 5 and 10 mg/kg trypsin inhibitor Nafamostat.
as §3

[9] = fasted rats, PO Compound AM-9 0.6 mg/kg with 0.1 and 0.25 mg/kg Nafamostat vs alone

Structure (SMILES): CC(=O)NCC(=O)N[C@@H](CCCNC(=N)N)C(=O)N[C@@H](C)Cc1ccccc1 [Compound AM-9, Amphetamine-arginine-glycine-acetate]
- AM-9 crossing from plasma into the CSF [1]: very little AM-9 that crosses from plasma into the CSF
- conversion of AM-9 to amphetamine in the blood [2]: very little conversion of AM-9 to amphetamine in the blood
- conversion of administered AM-9 to amphetamine [3]: majority of the administered AM-9 is immediately converted to amphetamine
- peak plasma concentration (Cmax) of AM-9 relative to peak plasma concentration of amphetamine [3]: approximately half
- conversion of administered AM-9 to amphetamine [4]: majority of the administered AM-9 is immediately converted to amphetamine
- peak plasma concentration of AM-9 relative to that of amphetamine [4]: less than half
- amphetamine Tmax (time to maximum plasma concentration) compared with administration of amphetamine [5]: the same Tmax
- Tmax for peak plasma concentration of amphetamine compared with direct administration of amphetamine [6]: the same as that from direct administration of amphetamine

Structure (SMILES): N=C(N)c1ccc2cc(OC(=O)c3ccc(N=C(N)N)cc3)ccc2c1 [Nafamostat, 6-carbamimidoylnaphthalen-2-yl 4-(diaminomethyleneamino)benzoate]
- effect on Cmax of amphetamine release from AM-9 [7, 9]: reduces the Cmax
- effect on Tmax of amphetamine release from AM-9 [7, 9]: increases the Tmax
- effect on release of amphetamine from Compound AM-9 from oral administration ([7]; rats, PO Compound AM-9 0.6 mg/kg alone and with 0.1 or 0.25 mg/kg Nafamostat, FIGS. 8A-8B): reduces the release of amphetamine
- effect on Cmax of amphetamine release from AM-9 [8]: reduces the Cmax
- effect on Tmax of amphetamine release from AM-9 [8]: increases the Tmax

Structure (SMILES): CS(=O)(=O)O.CS(=O)(=O)O.C[C@@H](Cc1ccccc1)NC(=O)[C@@H](N)CCCCN [Vyvanse, reference compound]
- Tmax for peak plasma amphetamine concentration [6]: 2 h
